# Data from US9353419B2, “Biomarkers for IAP inhibitor therapy” (Novartis AG, priority 2012, dated 2016).
# Columns and labels:
# [1] = tested on: panel of >500 tumor cell lines; assay: 72 hour proliferation assay, single agent cellular activity against tumor cell line panel; format: cell-based
# Source text: We used a statistical framework that integrates pharmacological data together with genetic and mRNA expression data in order to develop biomarkers for predicting response to IAP inhibitors. Using genomic data generated as part of the Cancer Cell Line Encyclopedia collection (Barretina J S, Caponigro G, Stransky N et al (2012) Nature; 483:603-7), we assembled gene copy number, mRNA expression and mutation data into a single matrix. Single agent cellular activity of various IAP antagonists was assessed against a panel of >500 tumor cell lines using a 72 hour proliferation assay. We classified these cell lines into sensitive, intermediate and refractory classes based on the distribution of IC50 data and manual curation of individual responses. A statistical test was applied in order to identify genomic “features” that could differentiate IAP antagonist-sensitive cell lines from refractory lines. Among the top-ranked genes showing differential mRNA expression were TNF and RIPK1, two genes with evidence for apoptotic response to IAP antagonists based on previous experimental studies involving one or a few cell lines. We are thus able to extend prior observations on limited experiments systematically to a large set of data and identified an additional set of seven genes (CXLC10, CCL5, NFKBIA, HERC5, CDYL, STK39 and MAPK14), whose mRNAs were differentially expressed in sensitive compared refractory lines.
# We built a predictive machine learning model using the Naive Bayes classifier based on the 9-gene signature as well as a 2-gene TNF/RIPK1 signature. […] For example, at model cutoffs optimized to obtain balanced performance between sensitivity and specificity for each model, the signatures yielded response rates of 16-18% in cross-validation compared to 8% response rate at random without any selection. This improved response rate was further validated in independent experimental testing of a compound-naive set of cell lines that were predicted to be sensitive (AUCs in Table 2).
# [2] = tested on: patient-derived tumor models representing triple negative breast cancer, NSCLC and pancreatic cancer; assay: single agent activity in patient-derived tumor models (primary human tumors grown as xenografts in mice); format: in vivo
# Source text: In addition, (S)—N—((S)-1-Cyclohexyl-2-{(S)-2-[4-(4-fluoro-benzoyl)-thiazol-2-yl]-pyrrolidin-1-yl}-2-oxo-ethyl)-2-methylamino-propionamide has been tested for single agent activity in 55 patient-derived tumor models representing triple negative breast cancer, NSCLC and pancreatic cancer models.
compound,measurement,setting,value
CN[C@@H](C)C(=O)N[C@H](C(=O)N1CCC[C@H]1c1nc(C(=O)c2ccc(F)cc2)cs1)C1CCCCC1 [(S)—N—((S)-1-Cyclohexyl-2-{(S)-2-[4-(4-fluoro-benzoyl)-thiazol-2-yl]-pyrrolidin-1-yl}-2-oxo-ethyl)-2-methylamino-propionamide],cell line response rate,"[1]; at random, without any selection (""all-comers"" cell lines)",8%
same,"increase in response rate compared to random or ""all-comers"" cell lines",[1]; at several model cutoff regimes of the predictive signatures,two- to three-fold
same,cell line response rate,"[1]; cell lines selected by gene signatures (2-gene, 9-gene), balanced model cutoffs, cross-validation",16-18%
same,single agent activity (range of responses),[2]; 55 patient-derived tumor models,ranging from tumor regression to no effect
same,response rate,"[2]; at random, 55 patient-derived tumor models",11%
same,response rate,"[2]; models selected by 2-gene, 3-gene and 9-gene signatures, balanced model cutoffs",~30%
